Reference: patent publication US20250115654A1, “PHARMACEUTICAL COMPOSITION OF GLP-1 RECEPTOR AND GIP RECEPTOR DUAL AGONIST, AND USE THEREOF” (FUJIAN SHENGDI PHARMACEUTICAL CO., LTD., priority 2021, published 2025)
Numbered stars: 1 amine (or outer) side, 2 acyl side, 3 side chain; on linkers, the order of the positions; unused ones are H or OH. Square brackets hold non-standard residues; d marks the D form. Side chains are listed from the residue outwards. Peptide text beside a SMILES is read from it. * marks the point of attachment. C20 diacid = O=C(O)CCCCCCCCCCCCCCCCCCC(=O)*; γGlu = O=C(O)[C@H](CCC(=O)[*:2])N[*:1]; AEEA = NCCOCCOCC(=O)O; Aib = CC(C)(N)C(=O)O

Assays:
[1] = Pharmacokinetics in Balb/c mice after a single intravenous injection; format: in vivo; conditions: male, mouse, mice plasma, 30 nmol/kg
Protocol: (§1) Male Balb/c mice weighing 18-30 g and aged 7-9 weeks were purchased from Shanghai Jiesijie Laboratory Animal Co., Ltd. After compound 7 #was prepared in a buffer containing 20 mM citric acid (pH=7.0), compound 7 #was intravenous injected into mice at a dose of 30 nmol/kg body weight via tail vein, and 0.2 mL of blood was separately collected at time points of 0 h, 0.083 h, 0.25 h, 0.5 h, 1 h, 2 h, 4 h, 6 h, 8 h, 24 h, and 32 h. The collected blood of mice was centrifuged at 6000 rpm for 6 min at 4° C. to separate the plasma. The content of compound 7 #in plasma of mice was assayed by the experimental procedures of Example 3.3.

[2] = tested on: diet-induced-obesity mice; assay: Body weight of diet-induced-obesity mice, subcutaneous administration once every 3 days; format: in vivo, C57BL/6 mice; conditions: for Body weight change (%, mean ± SD): 10 nmol/kg
normal mice = assay: Blood glucose in normal mice after a single subcutaneous administration and intraperitoneal glucose; format: in vivo, C57BL/6 mice; conditions: 10 nmol/kg sc; for Blood glucose (mmol/L, mean ± SD): glucose ip 18 h later
Protocol: 18 h later, a glucose solution at a concentration of 0.2 g/mL was intraperitoneally injected. Blood glucose values were measured by collecting blood from the tail of mice at time points of 0 min, 15 min, 30 min, 60 min, and 120 min according to the experimental design. The specific procedures were as follows: the mouse was physically immobilized with the tail exposed, a little part was cut off at the tail end, then the tail was squeezed to bleed, and blood glucose was determined using a Roche active glucometer after the 1st drop of blood was discarded. The area under the blood glucose curve (AUC) was calculated from the results of all time points.

[3] = Stability of compounds in human plasma (LC-MS); format: in vitro ADME
Protocol: 5 μL of each of samples at concentrations of 20 ng/mL, 50 ng/mL, 100 ng/mL, 200 ng/mL, 500 ng/mL, 1000 ng/mL, 2000 ng/mL, 5000 ng/mL, and 10000 ng/mL was added to 45 L of human plasma. The content of the compounds in the samples was determined by the LC-MS method and a standard curve was formed. 5 μL of a 1 mg/mL polypeptide solution was added to 45 μL of human plasma. […] With the content at 0 min as the standard (100%), the relative content of the retained compounds in the samples at other time points was calculated.

[4] = Pharmacokinetics in Balb/c mice after a single subcutaneous injection; format: in vivo; conditions: male, mouse, sc, mice plasma, 30 nmol/kg
Protocol: as §1, with “subcutaneously” for “intravenous”, “left side of abdomen,” for “tail vein,”, “5.2.” for “3.3.”

human GIPR = molecular target: T1, human GIPR (Homo sapiens, UniProt P48546); assay: Agonist activity against GIPR, cAMP HTRF in CHO-K1 cells transiently transfected with hGIP receptor; format: cell-based
T1 construct: expressed in transfected cells; host or cells: wild-type CHO-K1, transient transfection with hGIP receptor plasmid (Fugene HD)
T1 sequence (P48546 22-466): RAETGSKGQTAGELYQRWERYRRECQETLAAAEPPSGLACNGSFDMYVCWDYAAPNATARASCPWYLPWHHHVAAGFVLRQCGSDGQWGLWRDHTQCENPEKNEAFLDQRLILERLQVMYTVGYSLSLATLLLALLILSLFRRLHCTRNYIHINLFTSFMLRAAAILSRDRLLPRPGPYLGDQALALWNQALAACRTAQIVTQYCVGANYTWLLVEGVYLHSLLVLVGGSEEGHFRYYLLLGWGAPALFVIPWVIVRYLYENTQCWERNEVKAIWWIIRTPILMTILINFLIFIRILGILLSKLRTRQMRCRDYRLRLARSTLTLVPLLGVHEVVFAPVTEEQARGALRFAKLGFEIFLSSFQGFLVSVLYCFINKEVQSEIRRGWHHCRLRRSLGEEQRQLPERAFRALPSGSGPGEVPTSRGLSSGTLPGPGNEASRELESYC
Protocol: Wild-type CHO-K1 cells were collected, and the cell suspension was adjusted to an appropriate density, seeded in a 6-well plate at 2 mL/well, and placed in an incubator at 37° C. with 5% CO2 for adherence culture overnight.

[5] = molecular target: T2, human glucose-dependent insulinotropic polypeptide receptor (GIPR) (human) (UniProt P48546)
T2 sequence: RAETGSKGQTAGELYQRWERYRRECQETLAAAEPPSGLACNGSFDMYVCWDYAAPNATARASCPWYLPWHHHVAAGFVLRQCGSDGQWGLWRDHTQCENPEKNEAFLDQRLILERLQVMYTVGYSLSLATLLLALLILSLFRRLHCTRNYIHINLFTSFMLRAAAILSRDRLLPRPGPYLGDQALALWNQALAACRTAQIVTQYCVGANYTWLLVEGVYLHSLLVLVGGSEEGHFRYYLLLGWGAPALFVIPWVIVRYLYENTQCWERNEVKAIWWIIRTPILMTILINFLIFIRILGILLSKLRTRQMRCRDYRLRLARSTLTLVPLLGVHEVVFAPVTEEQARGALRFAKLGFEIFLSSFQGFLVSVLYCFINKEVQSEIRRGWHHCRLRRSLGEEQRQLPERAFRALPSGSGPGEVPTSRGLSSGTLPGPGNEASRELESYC

[6] = molecular target: T3, human glucose-dependent insulinotropic polypeptide receptor (GIPR) (human, UniProt P48546); assay: cell-based or functional assay
T3 sequence: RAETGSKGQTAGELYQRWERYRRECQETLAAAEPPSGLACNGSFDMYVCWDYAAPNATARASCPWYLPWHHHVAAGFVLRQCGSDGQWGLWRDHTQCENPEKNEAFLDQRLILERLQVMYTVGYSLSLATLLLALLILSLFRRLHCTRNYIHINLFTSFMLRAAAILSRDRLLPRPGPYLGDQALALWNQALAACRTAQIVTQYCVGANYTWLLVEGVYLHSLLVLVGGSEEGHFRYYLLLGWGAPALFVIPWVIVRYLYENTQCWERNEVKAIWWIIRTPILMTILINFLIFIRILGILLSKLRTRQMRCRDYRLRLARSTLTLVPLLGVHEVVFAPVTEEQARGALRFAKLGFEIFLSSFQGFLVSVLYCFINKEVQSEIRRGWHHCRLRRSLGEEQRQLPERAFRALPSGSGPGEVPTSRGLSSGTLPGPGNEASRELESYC

[7] = molecular target: human glucagon-like peptide-1 receptor (GLP-1R) (human, UniProt P43220); assay: cell-based or functional assay

## CC[C@H](C)[C@H](NC(=O)[C@H](CCCCN)NC(=O)[C@H](CC(=O)O)NC(=O)[C@H](CCCCNC(=O)COCCOCCNC(=O)COCCOCCNC(=O)CC[C@H](NC(=O)CCCCCCCCCCCCCCCCCCC(=O)O)C(=O)O)NC(=O)[C@H](Cc1ccc(O)cc1)NC(=O)[C@@H](NC(=O)[C@H](CO)NC(=O)[C@H](Cc1ccc(O)cc1)NC(=O)[C@H](CC(=O)O)NC(=O)[C@H](CO)NC(=O)[C@@H](NC(=O)[C@H](Cc1ccccc1)NC(=O)[C@@H](NC(=O)CNC(=O)[C@H](CCC(=O)O)NC(=O)C(C)(C)NC(=O)[C@@H](N)Cc1ccc(O)cc1)[C@@H](C)O)[C@@H](C)O)[C@@H](C)CC)C(=O)N[C@@H](C)C(=O)N[C@@H](C)C(=O)N[C@@H](CCC(N)=O)C(=O)N[C@@H](CCC(=O)O)C(=O)N[C@@H](Cc1ccccc1)C(=O)N[C@H](C(=O)N[C@@H](CC(N)=O)C(=O)N[C@@H](Cc1c[nH]c2ccccc12)C(=O)N[C@@H](CC(C)C)C(=O)N[C@@H](CC(C)C)C(=O)N[C@@H](C)C(=O)NCC(=O)NCC(=O)N1CCC[C@H]1C(=O)N[C@@H](CO)C(=O)N[C@@H](CO)C(=O)NCC(=O)N[C@@H](C)C(=O)N1CCC[C@H]1C(=O)N1CCC[C@H]1C(=O)N1CCC[C@H]1C(=O)N[C@@H](CO)C(N)=O)C(C)C [Compound 7#] (H-Y[Aib]EGTFTSDYSIYK([AEEA-AEEA-γGlu-C20 diacid])DKIAAQEFVNWLLAGGPSSGAPPPS-NH2)
[1]
  AUC(0-inf): 16100 ng·h/mL
  half-life: 13 h
[2]; Day 1
  Body weight change (%, mean ± SD): 0%
[2]; Day 4
  Body weight change (%, mean ± SD): −11.0 ± 1.0%
[2]; Day 7
  Body weight change (%, mean ± SD): −17.6 ± 2.6%
[2]; Day 10
  Body weight change (%, mean ± SD): −22.6 ± 5.9%
[2]; Day 13
  Body weight change (%, mean ± SD): −22.3 ± 6.3%
[2]; Day 16
  Body weight change (%, mean ± SD): −22.7 ± 6.9%
[2]; Day 19
  Body weight change (%, mean ± SD): −25.9 ± 6.2%
[2]; Day 22
  Body weight change (%, mean ± SD): −23.9 ± 5.6%
[2]; Day 25
  Body weight change (%, mean ± SD): −23.9 ± 5.6%
[2]; Day 28
  Body weight change (%, mean ± SD): −25.5 ± 5.3%
[2]; doses of 3, 10 and 100 nmol/kg
  body weight-reducing effect on high-fat food-induced-obesity mice: significant body weight-reducing effect
Normal mice
  reduction of area under the blood glucose curve compared with placebo: more than 60%
Normal mice; 0-120 min
  AUC (area under the blood glucose curve): 10.7 ± 1.8 mmol·h/L
Normal mice; 0 min
  Blood glucose (mmol/L, mean ± SD): 4.4 ± 0.8 mmol/L
Normal mice; 15 min
  Blood glucose (mmol/L, mean ± SD): 6.7 ± 0.8 mmol/L
Normal mice; 30 min
  Blood glucose (mmol/L, mean ± SD): 6.2 ± 1.3 mmol/L
Normal mice; 60 min
  Blood glucose (mmol/L, mean ± SD): 5.7 ± 1.2 mmol/L
Normal mice; 120 min
  Blood glucose (mmol/L, mean ± SD): 3.8 ± 1.1 mmol/L
[3]; 0 min (standard 100%)
  Relative content of compounds retained in plasma (%): 100.00%
[3]; human, 30 min, read-out: Relative content of compounds retained in plasma (%)
  remaining at 0.5 h, 0.1 mg/mL: 101%
[3]; human, 60 min, read-out: Relative content of compounds retained in plasma (%)
  remaining at 1 h, 0.1 mg/mL: 102%
[3]; human, 120 min, read-out: Relative content of compounds retained in plasma (%)
  remaining at 2 h, 0.1 mg/mL: 103%
[3]; human, 240 min, read-out: Relative content of compounds retained in plasma (%)
  remaining at 4 h, 0.1 mg/mL: > 90%
[4]
  AUC(0-inf): 14500 ng·h/mL
  half-life: 10.1 h
Human GIPR
  EC50: 0.11 nM

## LY3298176 (peptide)
[5]
  Activity against human GIPR (EC50 nM); cAMP, HTRF: 0.031 nM

B1: compound 7# H-YAibEGTFTSDYSIYK(OEG-OEG-yGlu-C20-OH)DKIAAQEFVNWLLAGGPSSGAPPPS-NH2 (peptide)
peptide: H-Y[Aib]EGTFTSDYSIYK([AEEA-AEEA-γGlu-C20‑OH])DKIAAQEFVNWLLAGGPSSGAPPPS-NH2
[6]
  Activity against human GIPR (EC50 nM); cAMP, HTRF: 0.11 nM
[7]
  Activity against human GLP-1R (EC50 nM); cAMP, HTRF: 0.021 nM
